Earlier results on one compound are cited in patent US10137135B2, “Formulations and methods for providing progestin-only contraception while minimizing adverse side effects associated therewith” (Allergan Sales, LLC, priority 2005, dated 2018).

The subject of the data set is ovulation. The conditions noted are these: subdermal implants of NEA.

Take `C#C[C@]1(OC(C)=O)CC[C@H]2[C@@H]3CCC4=CC(=O)CC[C@@H]4[C@H]3CC[C@@]21C` [NEA, norethindrone acetate]: the “NE levels thought to be required to consistently inhibit ovulation” value is given as 600 pg/mL.
